From US20210024634A1, “METHODS FOR PREDICTING AND ENHANCING THERAPEUTIC BENEFIT FROM CHECKPOINT INHIBITORS IN CANCER” (The Brigham and Women's Hospital, Inc., priority 2018, published 2021) come the findings set out here.

“Also recorded” adds a separate entry of the source.

One assay relates to CD200. Nature of the assay: qPCR of CD200 RNA levels in melanoma cell lines after MEK-inhibitor treatment. Type of assay: cell-based. The conditions noted are these: panel of melanoma cell lines, 24 h, 100 nM. How it is done:
FIGS. 11A-C. 11A. CD200 decrease in melanomas after MEK-inhibitor treatment, but not in carcinomas (GSE10087). 11B. […] 11C. The pREP4-CD200 reporter recapitulates changes in response to MEK-inhibitor (24 h; 100 nM). Significance as * p<0.05: ** p<0.01, based on 2-sample, 2-tailed t-test. Because CD200 has been identified as regulated by MAPK-signaling in melanoma cells, a pathway which is frequently deregulated by BRAF(V600E) function, we wanted to assure that this mode of regulation holds true. To this end, we analyzed publicly available data (GSE10087) on MEK-inhibitor treatment across a cohort of carcinoma and melanoma cell lines (FIG. 11A), measured CD200 levels by qPCR following MEK inhibition in a cohort of our melanoma cell lines (FIG. 11B), and initial reporter assays (FIG. 11C). […] Using qPCR, we measured the effect of MEK-inhibitor treatment on CD200 RNA levels across our panel of melanoma cell lines (see FIG. 11B), using 24 h treatment with PD0325901 [100 nM].
(In general: Real-time PCR tracks product formation cycle by cycle.)

For assay [1], the system named is CD200 promoter (pREP4-CD200 reporter). Description: pREP4-CD200 reporter assay. The assay is classed as cell-based, human. To be noted: 24 h; 100 nM. How it is done: FIGS. 11A-C. 11A. CD200 decrease in melanomas after MEK-inhibitor treatment, but not in carcinomas (GSE10087). 11B. […] 11C. The pREP4-CD200 reporter recapitulates changes in response to MEK-inhibitor (24 h; 100 nM). Significance as * p<0.05: ** p<0.01, based on 2-sample, 2-tailed t-test. The region next to the CD200 transcription start drives basal activity. We have therefore amplified an 850 bp fragment upstream of the CD200 start codon, and cloned it into an EBNA-carrying vector (pREP4-LUC/hygromycin [50]) that remains episomal and replicates within human cells and allows nucleosome deposition to form chromatin. Because CD200 has been identified as regulated by MAPK-signaling in melanoma cells, a pathway which is frequently deregulated by BRAF(V600E) function, we wanted to assure that this mode of regulation holds true. To this end, we analyzed publicly available data (GSE10087) on MEK-inhibitor treatment across a cohort of carcinoma and melanoma cell lines (FIG. 11A), measured CD200 levels by qPCR following MEK inhibition in a cohort of our melanoma cell lines (FIG. 11B), and initial reporter assays (FIG. 11C).
(A reporter such as luciferase makes a cellular process visible.)

Turning to `O=C(NOC[C@H](O)CO)c1ccc(F)c(F)c1Nc1ccc(I)cc1F` [PD0325901], the “CD200 RNA levels” value with CD200 was “consistently are reduced; also recorded: consistent downregulation of CD200 levels; also recorded: Consistent CD200 decrease”. Further, the pREP4-CD200 reporter response result in assay [1] was “parallels these responses”.
